# Test results reported in ChEMBL document CHEMBL1127429, “4-Deacetyltaxol and 10-acetyl-4-deacetyltaxotere: synthesis and biological evaluation” (J Med Chem, 1994).
# What was measured:
# [1] = Ratio of ED50 to that of taxol.
# [2] = In vitro binding affinity to reduce the supernatant protein concentration of the microtubule
Ratio [1],ED50 [2],SMILES
> 32,> 30 µM,CC(=O)O[C@H]1C(=O)[C@@]2(C)[C@H]([C@H](OC(=O)c3ccccc3)[C@]3(O)C[C@H](OC(=O)[C@H](O)[C@@H](NC(=O)c4ccccc4)c4ccccc4)C(C)=C1C3(C)C)[C@]1(O)CO[C@@H]1C[C@@H]2O
1,0.93 µM,CC(=O)O[C@H]1C(=O)[C@@]2(C)[C@H]([C@H](OC(=O)c3ccccc3)[C@]3(O)C[C@H](OC(=O)[C@H](O)[C@@H](NC(=O)c4ccccc4)c4ccccc4)C(C)=C1C3(C)C)[C@]1(OC(C)=O)CO[C@@H]1C[C@@H]2O
> 32,> 30 µM,CC(=O)O[C@H]1C(=O)[C@@]2(C)[C@H]([C@H](OC(=O)c3ccccc3)[C@]3(O)C[C@H](OC(=O)[C@H](O)[C@@H](NC(=O)OC(C)(C)C)c4ccccc4)C(C)=C1C3(C)C)[C@]1(O)CO[C@@H]1C[C@@H]2O
